Among the data in US10030036B2, “Method and dyes for detecting and destroying cancer cells” (Lahjavida, LLC, priority 2009, dated 2018) are λmax absorption and λmax emission values, retold here.

This data set can be described thus: near infrared fluorescent spectral properties. The class given is physicochemical. An excerpt: Some of these compounds in formula 1-8 and the compounds shown in Scheme 1 have variable water solubility, near infrared fluorescent spectral properties suitable for in-vivo tissue imaging (e.g. MHI-148 has λmax absorption 780 nm and high intensity λmax emission 800 nm (FIG. 1)), and have been tested to have similar activities in near infrared fluorescent imaging of tumor cells and inhibiting tumor cell growth in vitro, and permit selective destruction of any gold labeled cancer cells via radiofrequency treatment. The solubility of the labeled gold particles may be controlled by the dye molecules attached to the surface of gold particles or by additional solubilization groups attached to the gold particle surface as it is described by the literature or by prior art. Biodistribution of these gold particles are determined by the molecules attached to the gold particle surface and particle size.

Structures are written as SMILES.

As to `CC1(C)C(/C=C/C2=C(Cl)C(=C/C=C3\Cc4ccccc4N3CCCCCC(=O)O)/CCC2)=[N+](CCCCCC(=O)O)c2ccccc21` [MHI-148], the λmax absorption is 780 nm. Under “high intensity”, this compound showed a λmax emission of 800 nm.
